Source: US20050175535A1 (CV Therapeutics, Inc., priority 2000, published 2005)
Where two headings read alike, the source gives them in different places.

Columns and labels:
[1] = system: rat isolated perfused heart; experiment: Reversal time of coronary vasodilation in rat isolated perfused hearts; conditions: bolus, rat isolated perfused heart;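 further: each agonist bolused at its minimal concentration giving equal maximal coronary conductance rise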
Experimental: FIG. 10. Reversal of effect of agonist stimulation on CC. […] CC was measured at 8, 16 and 24 minutes after administration (FIG. 10A). […] R and N are the correlation coefficient and number of agonists, respectively.
The relationship between the affinity of agonists for the A2A receptor and the rate of reversal of agonist-mediated responses (coronary vasodilation in heart and cAMP accumulation in PC12 cells) upon termination of drug administration were determined. […] The duration of the coronary vasodilation in isolated rat hearts caused by adenosine, the CVT compounds, and other agonists measured as the time to 50% and 90% (t0.5 and t0.9, respectively) reversal of the increases in coronary conductance after termination of drug administration are summarized in Table 4.

A2A adenosine receptors = A2A adenosine receptors (Sus scrofa, UniProt K9IW67); experiment: Competitive radioligand binding, [3H]ZM241385, pig striatum membranes; conditions: [3H]ZM241385, Gpp(NH)p present
Experimental: Membranes were also obtained from porcine striatial cells as follows. […] The homogenate was filtered through cotton gauze and centrifuged at 48,000g for 15 minutes at 4° C. […] The final pellet was frozen at −80° C. until used for receptor binding assays.

[2] = Coronary blood flow and reversal time, intracoronary infusion in open-chest anesthetized pigs; type: in vivo
Experimental: The magnitude of the effect of A2A adenosine receptor agonists on coronary dilation and the duration of the effect was determined in pigs weighing 22-27 kg. […] In addition, animals were used in accordance with the guidelines of the University of Kentucky Institutional Animal Care and Use Protocol.
Anesthesia was maintained with additional sodium pentobarbital (1.5-2 mg/kg, i.v.) every 15-20 minutes. Animals were ventilated via a tracheotomy tube using a mixture of room air and 100% O2. Tidal volume, respiratory rate and fraction of O2 in inspired air were adjusted to maintain arterial blood gas (ABG) and pH values. […] Lactate Ringers solution was administered via an ear or femoral vein as an initial bolus of 300-400 ml followed by a continuous infusion at a rate of 5-7 ml/kg/hr. A catheter was inserted into the femoral artery to monitor arterial blood pressure.
The heart was exposed through a median sternotomy and suspended in a pericardial cradle. Left ventricular pressure (LVP) was measured with a 5F high fidelity pressure sensitive tip transducer (Millar Instruments, Houston, Tex.) placed in the left ventricular cavity via an apical incision and secured with a purse string suture. A segment of the left anterior descending coronary artery (LAD), proximal to the origin of the first diagonal branch, was dissected free of surrounding tissue. A transit time perivascular flow probe (Transonic Systems Inc., Ithaca, N.Y.) was placed around this segment to measure CBF. Proximal to the flow probe, a 24-gauge modified angiocatheter was inserted for intracoronary infusions. […] The A2A adenosine receptors agonists were administered intracoronary.
Relationship between affinity of various agonists for A2A adenosine receptor and the reversal time of their effect to increase coronary conductance was determined in pigs. Each experiment was preceded by a 30-minute stabilization period following the completion of all instrumentation of the animal. Baseline hemodynamic data were then recorded and an intracoronary infusion of an A2A Adenosine receptors agonist was initiated. Each infusion was maintained for 4-5 minutes to allow LAD CBF to reach a steady-state, after which the infusion was terminated. The times to recovery of CBF by 50% (t0.5) and 90% (t0.9) of the difference from peak effect to baseline CBF were recorded. Ten to 15 minutes after CBF returned to pre-drug values a second infusion with a different agonist was started. […] Hemodynamic measurements were made prior to and following the initiation of the phenylephrine infusion. The phenylephrine infusion rate was adjusted during and following the infusions of the adenosine receptor agonists to maintain arterial blood pressure within 5 mmHg of pre-infusion values. The effect of a maximum of three different agonists was determined in each experiment.

[3] = system: rat isolated perfused heart; experiment: Coronary conductance / coronary perfusion pressure in isolated perfused rat hearts; conditions: for EC50: Rattus norvegicus
Experimental: Briefly, rats of either sex weighing 230-260 grams were anesthetized by intraperitoneal injection of a mixture of ketamine (100 mg/ml) and xylazine (20 mg/ml). The chest of each rat was opened and the heart removed, and rinsed in ice-cold modified Krebs-Henseleit (K-H) solution containing NaCl 117.9, KCl 4.5, CaCl2 2.5, MgSO4 1.18, KH2PO4 1.18, pyruvate 2.0 mmo/L. The aorta was cannulated and the heart was perfused at a flow rate of 10 ml/min with modified K-H solution. The K-H solution (pH 7.4) was gassed continuously with 95% O2 and 5% CO2 and warmed to 35±0.5° C. The heart was electrically paced at a fixed cycle length of 240 ms (250 beats/min) using a bipolar electrode placed in the left atrium. The electrical stimuli were generated by a Grass stimulator (Model S48, W. Warwick, R.I.) and delivered through a Stimuli Isolation Unit (Model SIU5, Astro-Med, Inc., NY) as square-wave pulses of 3-msec in duration and with an amplitude of at least twice the threshold intensity.
The identity of the adenosine receptor subtype (A1 or A2A) mediating the coronary vasodilation was determined.
Coronary perfusion pressure (CPP) was measured using a pressure transducer that was connected to the aortic cannula via a T-connector positioned approximately 3 cm above the heart. CPP was monitored throughout an experiment and recorded either on a chart recorder (Gould Recorder 2200S, Valley View, Ohio) or a computerized recording system (PowerLab/4S, ADInstruments Pty Ltd, Australia). Only hearts with CPP ranging from 60 to 85 mmHg (in the absence of drugs) were used in the study. CC conductance (in ml/min/mmHg) was calculated as the ratio between coronary perfusion rate (10 ml/min) and CPP.

[4] = target: T1, human A1 adenosine receptors (Homo sapiens, UniProt P30542); experiment: Competitive radioligand binding, [3H]CPX, CHO-hA1AdoR membranes; conditions: in words
T1 construct: expressed in transfected cells
T1 sequence (P30542 1-326): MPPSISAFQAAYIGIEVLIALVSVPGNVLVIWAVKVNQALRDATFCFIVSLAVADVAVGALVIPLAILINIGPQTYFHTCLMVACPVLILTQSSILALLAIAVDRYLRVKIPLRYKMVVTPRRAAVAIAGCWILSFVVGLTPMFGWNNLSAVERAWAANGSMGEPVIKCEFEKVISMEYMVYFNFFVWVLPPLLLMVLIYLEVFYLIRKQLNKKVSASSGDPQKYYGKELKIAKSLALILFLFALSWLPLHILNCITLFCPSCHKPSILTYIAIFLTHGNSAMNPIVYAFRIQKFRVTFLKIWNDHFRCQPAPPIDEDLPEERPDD
Experimental: The cell suspensions were homogenized and centrifuged at 48,000g for 15 minutes. The pellets were washed three times by re-suspension in ice-cold Tris-HCl buffer and centrifugation. The final pellet was re-suspended in Tris-HCl, aliquoted and frozen at −80° C. until used for receptor binding assays.

[5] = read-out: Ki, Pig Strialum (A2A)
[6] = read-out: pKi ± SEM, Pig Strialum (A2A) (converted)

Chain of A2A adenosine receptors (K9IW67 1-409): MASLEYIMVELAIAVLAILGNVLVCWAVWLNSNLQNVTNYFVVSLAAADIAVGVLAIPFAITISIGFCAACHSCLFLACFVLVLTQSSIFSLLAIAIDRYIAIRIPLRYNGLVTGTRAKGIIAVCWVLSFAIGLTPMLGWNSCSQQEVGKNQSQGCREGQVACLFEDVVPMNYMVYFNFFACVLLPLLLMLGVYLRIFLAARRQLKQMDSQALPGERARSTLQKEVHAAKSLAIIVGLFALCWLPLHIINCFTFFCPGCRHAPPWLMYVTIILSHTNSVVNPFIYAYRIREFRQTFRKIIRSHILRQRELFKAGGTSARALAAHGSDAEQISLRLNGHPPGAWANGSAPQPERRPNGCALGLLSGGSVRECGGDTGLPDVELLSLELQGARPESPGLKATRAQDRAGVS

Row | Structure (SMILES) | t0.5, time to 50% reversal of the increase in coronary conductance [1] [min] | t0.9, time to 90% reversal of the increase in coronary conductance [1] [min] | Ki (A2A adenosine receptors; [5]) [nM] | also measured
1 | CCOC(=O)c1cnn(-c2nc(N)c3ncn([C@@H]4O[C@H](CO)[C@@H](O)[C@H]4O)c3n2)c1 [CVT-3127, ethyl 1-{9-[(4S,2R,3R,5R)-3,4-dihydroxy-5-(hydromethyl)oxolan-2-yl]-6-aminopurin-2-yl}pyrazole-4-carboxylate] | 14.8 ± 2.1 | 15.0 ± 0.8 | 64 | Ki (A2A adenosine receptors; [6]): 60.3 nM
2 | CCCCC#Cc1nc(N)c2ncn([C@@H]3O[C@H](C(=O)NCC)[C@@H](O)[C@H]3O)c2n1 [HENECA, 2-hexynyladenosine-5′-N-ethyl-, reference compound] | 28.6 ± 1.1 | 32.8 ± 3.1 | 7.96 | pKi ± SEM, Pig Strialum (A2A) (A2A adenosine receptors): 8.10 ± 0.08
3 | CCNC(=O)[C@H]1O[C@@H](n2cnc3c(N)nc(NCCc4ccc(CCC(=O)O)cc4)nc32)[C@H](O)[C@@H]1O [CGS21680, 2-p-(2-carboxy-ethyl) phenethyl-amino-5′-N-ethylcarboxamido-adenosine, reference compound] | – | – | – | t0.5 reversal of increase in coronary blood flow ([2]; 2 ug/kg/min intracoronary): 9.7 ± 0.8 min; t0.9 reversal of increase in coronary blood flow ([2]; 2 ug/kg/min intracoronary): 21.4 ± 0.8 min; decrease in coronary perfusion pressure ([3]; 100 nM, isolated rat heart): 23 mmHg; EC50 ([3]; read-out: EC50, Coronary Conductance (Rat Isolated Heart)): 0.54 nM; EC50 ([3]; read-out: pEC50 ± SEM, Coronary Conductance (Rat Isolated Heart) (converted)): 0.537 nM; effect on coronary conductance ([3]; isolated rat hearts, in words): concentration-dependent increases in coronary conductance; affinity for the A1 receptor expressed by CHO-K1 cells [4]: relatively low affinities
4 | Nc1nc(-n2cc(-c3ccc(Cl)cc3)cn2)nc2c1ncn2[C@@H]1O[C@H](CO)[C@@H](O)[C@H]1O [CVT-3141, (4S,2R,3R,5R)-2-{6-amino-2-[4-(4-chlorophenyl)pyrazole]purin-9-yl}-5-(hydroxymethyl)oxolane-3,4-diol] | 14.4 ± 1.9 | 21.3 ± 3.9 | – | –
5 | Cc1ccc(-c2nc(N)c3ncn([C@@H]4O[C@H](CO)[C@@H](O)[C@H]4O)c3n2)s1 [CVT-3100] | 5.1 ± 0.6 | 10.1 ± 0.2 | 697 | –
6 | Nc1nc(-c2cnn(CCCc3ccccc3)c2)nc2c1ncn2[C@@H]1O[C@H](CO)[C@@H](O)[C@H]1O [CVT-3126, (4S,2R,3R,5R)-2-{6-amino-2-[1-(3-phenylpropyl)pyrazol-4-yl]purin-9-yl}-5-(hydroxymethyl)oxolane-3,4-diol] | 8.3 ± 0.4 | 12.6 ± 0.3 | 1670 | –
7 | N#Cc1ccc(OCC#Cc2nc(N)c3ncn([C@@H]4O[C@H](CO)[C@@H](O)[C@H]4O)c3n2)cc1 [CVT-3101, 4-(3-{9-[(4S,2R,3R,5R)-3,4-dihydroxy-5-(hydroxymethyl)oxolan-2-yl]-6-aminopurin-2-yl}prop-2-ynyloxy)benzenecarbonitrile] | 16.7 ± 0.5 | 25.6 ± 0.3 | 94 | –
8 | CCCCCCC#Cc1nc(N)c2ncn([C@@H]3O[C@H](CO)[C@@H](O)[C@H]3O)c2n1 [YT-146, reference compound] | 17.7 ± 1.0 | 25.8 ± 4.0 | 16.3 | CBF (fold-increase) ([2]; 1 ug/kg/min intracoronary): 3.44 ± 0.47 fold; t0.5 reversal of increase in coronary blood flow ([2]; 1 ug/kg/min intracoronary): 17.8 ± 3.4 min; t0.9 reversal of increase in coronary blood flow ([2]; 1 ug/kg/min intracoronary): 32.9 ± 5.6 min; pKi ± SEM, Pig Strialum (A2A) (A2A adenosine receptors): 7.86 ± 0.33
9 | C[C@H](Cc1ccccc1)Nc1ncnc2c1ncn2[C@@H]1O[C@H](CO)[C@@H](O)[C@H]1O [R-PIA, Phenylisopropyladenosine, reference compound] | – | – | 1110 | pKi ± SEM, Pig Strialum (A2A) (A2A adenosine receptors): 5.96 ± 0.06
10 | Nc1nc(-c2cccs2)nc2c1ncn2[C@@H]1O[C@H](CO)[C@@H](O)[C@H]1O [CVT-3003, (4S,2R,3R,5R)-2-(6-amino-2-(2-thienyl)pruin-9-yl)-5-(hydroxymethyl)oxolane-3,4-diol] | 3.4 ± 0.1 | 9.2 ± 2.2 | 1010 | –
11 | Nc1nc(C#CCOc2ccccc2Cc2ccccc2)nc2c1ncn2[C@@H]1O[C@H](CO)[C@@H](O)[C@H]1O [CVT-3006, (4S,2R,3R,5R)-2-(6-amino-2-{3-[2-benzylphenoxy]prop-1-ynyl}purin-9-yl)-5-(hydroxymethyl)oxolane-3,4-diol] | 16.1 ± 0.1 | 21.8 ± 2.0 | 64 | Ki (A2A adenosine receptors; [6]): 57.5 nM
12 | Cc1ccc(-c2cnn(-c3nc(N)c4ncn([C@@H]5O[C@H](CO)[C@@H](O)[C@H]5O)c4n3)c2)cc1 | 13.6 ± 1.3 | 18.9 ± 1.9 | 502 | Ki (A2A adenosine receptors; [6]): 490 nM
